In patent US12508275B2, “Neomycin based compounds, and pharmaceutical use thereof” (UNIVERSITÉ COTE D'AZUR, priority 2019, dated 2025):

Columns and labels:
[1] = tested on: GSC expressing a luciferase gene (GB1-luc) brain tumors; assay: Orthotopic GB1-luc xenograft, treatment of already formed tumors; type: in vivo, nude mice; details: 7.5 mg/kg three times a week, live imaging, vs DMSO; 11th week P value=0,017
Protocol: (§1) FIG. 3: Nude mice were orthotopically xenografted by luminescent patient derived GSC. (A-B) Two weeks following injections, mice were intraperitoneally injected with 10 mg/kg (n=4), 7.5 mg/kg (n=4) or 5 mg/kg (n=4) of Compound 9a or vehicle alone as control (ctl n=10). A) graphical representation of the average of tumor growth in the control group (n=10) and in each Compound 9a treated groups. B) Survival of the whole population of mice of the untreated and treated groups were compared using a log rank test according to Kaplan Meier method. (R command, see World Wide Web: biostatgv.sentiweb.fr/?module=tests/surv). The solid line represents the survival rate of control untreated mice. The dotted line represents the survival rate of mice treated by compound 9a. C) Mice treatment with compound 9a when the tumors were already formed. Tumor growth representation in mice, treated either with DMSO (control: -♦-) or Compound 9a (-▪-). Tumor growth was controlled every week by live imaging. The solid line represents the tumor growth in control untreated mice. The dotted line represents the tumor growth in mice treated by compound 9a.
To further determine whether Compound 9a might also alter tumor growth of tumors that were already formed before treatment, 50000 GSC expressing a luciferase gene (GB1-luc) for luminescent live imaging were injected in the brain of 12 nude mice. […]

[2] = tested on: normal neural stem cells (NNSC); assay: XTT toxicity assay on normal neural stem cells; type: cell-based
Protocol: FIG. 4: Determination of compound toxicity on GSC and normal human cells. (A) GB5 were incubated with growing concentration of Compounds 9a-b and 18a. (B) human normal neural stem cell (NNSC), human normal kidney cells (NHEK), human normal hepatocytes (HEPRG) and (C) human endothelial cells (HUVEC) were treated with growing concentration of Compound 9a. 7 days later, the cells were subjected to an XTT assays as described in the method section. The results are the meaning of at least two separate experiments. Cell death was confirmed by trypan blue staining (not shown).
V—Toxicity tests: NNSC, GB5, TG6, HEK293, and HepaRG, HUVEC were seeded at 2000 cells/well in 96 wells plate in their respective culture mediums alone or containing growing concentration from 10 to 500 uM of Compounds 9a-b. Cultures were incubated 4 days and the cellular toxicity has been evaluated by XTT assays. Cell viability has been also assessed by counting living and dead cells with trypan blue staining.
XTT assays allows, through cell metabolism measurement, to determine a cytotoxic/cytostatic effects. Compounds 9a-b and 18a were tested for their eventual toxicity by XTT assays as described in the material and method section. At the working concentrations 10 to 25 uM, the compounds are not toxic for GSC (FIG. 4A). […]

[3] = tested on: NESTIN expression in GB5; assay: NESTIN expression by immunofluorescence in GB5; type: cell-based, human; details: GB5, seven days
Protocol: FIG. 2: Compounds 9a-b and 18a-b effect on stemness marker expression, clonal expansion and mitosis in GB5 cells. (A) NESTIN expression was assessed by immunofluorescence in GB5 treated with increasing amount of Compounds 9a-b and 18a. The number of NESTIN positive cells was counted for each treatment and express as percentage of the control (100%). The results are the meaning of at least two separate experiments. […] (C) Clonal expansion analysis was performed with GB5 cells as described in the material and method section. Two and three weeks later, the number of spheroids is counted and reported as percentage of the initial number of cells in the well. The results are the meaning of a minimum of two separate experiments. (D) The number of mitosis in the culture was determined by the detection of the number of cells positive for histone H3 phosphorylated on ser-10 (H3-ser10). H3-ser10 expression was assessed by immunofluorescence in GB5 treated with increasing amount of Compounds 9a-b and 18a. The number of positive cells was counted for each treatment and express as percentage of the control (100%). The results are the meaning of at least two separate experiments.
III—Immunofluorescence assay: TG6 and GB5 were seeded at 2000 cells/well in 24 wells plate in NS34+ alone or containing 5, 7.5, 10, 12.5, 15, 20 and 25 uM of Compounds 9a-b and 18a-b. Cultures were incubated 4 days and the cells were fixed with 4% paraformaldehyde for 10 min at room temperature then washed with PBS. Cells were then incubated with ammonium chloride at 20 mM 5 min at room temperature and washed 5 times with PBS. Blocking and hybridization were realized in PBS containing 10% FCS and 0.1% Triton X100. Anti-Nestin and anti-H3Phospho serine 10 antibodies were incubated 2 hours at room temperature then washed with PBS. Fluorescence coupled secondary antibodies and Hoechst 33342 nuclei counterstaining reagent were hybridized one hour at room temperature. Cells were mounted with anti-fading agent then imaged, counted and quantified using fluorescent microscopy (TiE Nikon) and NiS software (Nikon).
Patient derived GSC (GB5) have been treated during seven days, with growing concentrations of compounds that have been capable of inducing changes of GSC morphology. To assess the consequence on stemness maintenance, we observed, by immunofluorescence, the expression of stemness and progenitor cells such as the NESTIN protein. […] The strongest effect has been obtained with Compounds 9a treatment (IC50=10 uM).

[4] = tested on: luminescent patient derived GSC orthotopic xenograft; assay: Orthotopic xenograft of luminescent patient derived GSC, treatment from two weeks after injection; type: in vivo, nude mice
Protocol: as §1
Nude mice were orthotopically xenografted by luminescent patient derived GSC. […]

NCCCCNCCCNC(=O)c1csc(-c2csc(CCNC(=O)CCc3cn(CC4OC(OC5C(O)C(N)CC(N)C5OC5OC(CN)C(O)C(O)C5N)C(O)C4OC4OC(CN)C(O)C(O)C4N)nn3)n2)n1 (stereo not shown) [Compound 9a, N-(3-((4-Aminobutyl)amino)propyl)-2′-(2-(3-(1-methyl-1H-1,2,3-triazol-4-yl)propanamido)ethyl)-[2,4′-bithiazole]-4-carboxamide-neomycin]
growth of tumors already formed before treatment [1]: repressed tumor growth | toxicity (XTT) ([2]; 100 uM and above): toxic | toxicity (XTT) ([2]; between 10 to 50 uM): not toxic | NESTIN expression ([3]; growing concentrations): drop in NESTIN expression | IC50 ([3]; Homo sapiens, 168 h): 10 µM | treated mice that developed a tumor ([4]; intraperitoneal 10, 7.5 or 5 mg/kg, three days a week, all control mice developed a tumor): two mice above twelve | tumor initiation and development ([4]; intraperitoneal at 10 mg/kg, 7.5 mg/kg and 5 mg/kg): prevented tumor initiation and development
